Results as given in patent publication US11759412B2, “Personal care compositions with glutathione precursor comprising 4-substituted resorcinols and amino acids” (Conopco, Inc., priority 2016, dated 2023).

Tests used:
Assay type in all cases: cell-based
[1] = target: T1, tyrosinase in Human primary melanocytes (Homo sapiens, UniProt P14679); assay: Tyrosinase Activity Assay (in situ, melanocyte lysate, DOPA/MBTH); details: Table 4, GAP where present: glutamine 32 uM, cystine 40 uM, glycine 129 uM, 72 hours
T1 construct: host or cells: Human primary melanocytes
T1 sequence (P14679 19-529): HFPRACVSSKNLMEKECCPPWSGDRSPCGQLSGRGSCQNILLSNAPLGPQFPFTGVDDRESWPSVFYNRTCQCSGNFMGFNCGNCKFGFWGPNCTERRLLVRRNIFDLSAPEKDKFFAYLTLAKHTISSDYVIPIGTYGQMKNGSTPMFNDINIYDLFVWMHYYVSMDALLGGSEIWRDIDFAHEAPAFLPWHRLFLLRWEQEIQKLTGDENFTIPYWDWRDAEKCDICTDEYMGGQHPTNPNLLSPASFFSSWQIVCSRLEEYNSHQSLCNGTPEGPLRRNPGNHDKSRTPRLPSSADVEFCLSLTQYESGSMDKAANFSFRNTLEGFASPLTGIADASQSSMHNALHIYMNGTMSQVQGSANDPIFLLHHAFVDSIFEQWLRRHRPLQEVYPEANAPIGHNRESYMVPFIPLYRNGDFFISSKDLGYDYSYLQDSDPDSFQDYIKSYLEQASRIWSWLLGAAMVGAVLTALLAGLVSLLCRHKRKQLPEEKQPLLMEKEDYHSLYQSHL
Procedure: Human primary melanocytes (Cascade Biologics, now ThermoFisher Scientific) were grown in melanocytes growth medium (MGM) with human melanocyte growth supplement (both media components from ThermoFisher Scientific). Melanocytes were seeded at 1×10^4 cells/well in a 96 wells plate and cultures left undisturbed for 24 hrs in a 5% CO2 humidified incubator at 37° C. At 24 hrs post-seeding, cells were treated with GAP amino acids (consisting of glutamine (32 uM), cystine (40 uM), glycine (129 uM)) alone or in combination with test reagents described above, and left undisturbed for another 72 hours. Subsequently, cell viability was assessed and the cells were then lysed and progressed for determination of in situ tyrosinase activity. Cultures were rinsed twice with 1× phosphate-buffered saline and lysed with 40 uL of 0.5% TritonX 100 for 1 hour on an ice bed. In situ tyrosinase activity was visualized by addition of 60 μl of 50 mM potassium phosphate buffer (pH 6.8) containing 2 mM DOPA (3,4 dihydroxy phenylalanine) and 4 mM MBTH reagent (3-Methyl-2-Benzothiazolinone hydrazone hydrochloride) for 1 hour at 37° C. The reaction was stopped by the addition of 100 uL of ice-cold 10% tricholoracetic acid and then centrifuged at approximately 300 g for 10 minutes at 4° C. The soluble supernatant was separated from the pellet and the optical density read in a TECAN plate-reader (540 nm filter). The spectrophotometric optical density at 540 nm for untreated cells (no active) is considered as 100% tyrosinase activity. Tyrosinase activity is expressed after correction for cell numbers (activity/viability) and represented as % control.

Aged Human Keratinocytes = assay: Glutathione Assay (total glutathione, GSH-GSSG Glo, menadione challenge); details: for synergistic increase in GSH synthesis, combination with GAP amino acids vs either alone: resorcinol/test reagent combined with GAP, + menadione
Procedure: Aged Human Keratinocytes (Cascade Biologics, now ThermoFisher Scientific, Waltham, Mass.) were maintained in Epi Life® medium containing 60 uM calcium chloride and 1% Human Keratinocyte Growth Supplement (both media components from ThermoFisher Scientific) in a humidified incubator with an atmosphere containing 5% CO2 at 37° C. The medium was refreshed every 2-3 days. Subsequently, cells were trypsinized at 90% confluency and seeded at a density of 1×10^4 per well into 96-well plates with white wall and clear bottom. One or two days after seeding, cell medium was replaced with Hank's Balanced Salt Solution (HBSS), and keratinocytes were pre-treated with GAP (or 0.12-0.240 mM sodium hydroxide vehicle control, pH 7.5) alone or in combination with additional test reagents described above or L-cystine esters alone for 1-2 hours. The concentration of all amino acids constituting the GAP mixture used in this assay are designated in the data tables, and fully described in the abbreviations list below.
After one or two hours of pre-treatment with GAP or additional test reagents, alone or in combination, keratinocytes were then challenged with 25 uM menadione (Sigma-Aldrich), a known inducer of oxidative stress. After 18-20 hours, cells were harvested and analyzed for total glutathione levels using a commercially available kit (GSH-GSSG GLo Assay, Promega), a luminescence-based system for the detection and quantification of total glutathione in cultured cells. In summary, after cell treatment, the media was removed and replaced with a cell lysis reagent for 5 minutes at 20-25° C.; note, all remaining steps were also conducted at 20-25° C. Next, a luciferase generation reagent was added to each well and incubated for 30 minutes. Following this step, a luciferin detection reagent was added to each well and plates were incubated for 15 minutes. Finally, plates were then read for luminescence in a FlexStation 3 plate reader (Molecular Devices). Total glutathione levels were calculated after interpolation of glutathione concentrations from a standard curve. Experimental conditions were typically conducted in at least triplicate determinations. Statistical significance was calculated using 1-way ANOVA. Percent protection was calculated by using the calculated glutathione levels from each experiment in the following equation: […]

Human Keratinocytes [2] = assay: Reactive Oxygen Species (ROS) Assay (CellROX green, menadione); details: for synergistic decrease in ROS production, combination with GAP amino acids vs either alone: resorcinol/test reagent combined with GAP
Procedure: Human Keratinocytes (Promocell, Heidelberg, Germany) were maintained in EpiLife® keratinocyte medium containing 60 uM calcium chloride and 1% Human Keratinocyte Growth Supplement (HKGS) in a humidified incubator with an atmosphere containing 5% CO2 at 37° C. The medium was refreshed every other day. Subsequently, cells were trypsinized at 90% confluency and seeded at a density of 1-2×10^4 per well into 96-well plates with black wall and clear bottom. On the second day after seeding, cell medium was replaced with Hank's Balanced Salt Solution (HBSS) with or without menadione (10-25 uM), GAP (typically at 49 uM pyroglutamic acid, 60 uM cystine, 194 uM glycine), GAP vehicle (0.2 mM NaOH, pH 7.5), above-described additional test reagents, or combinations of GAP with additional test reagents or L-cystine esters alone, and incubated for additional 18 hours. For ROS detection, CellROX green (Life Tech, Thermo Fisher Scientific, Rockford, USA) reagent was added into each well to a final concentration of 15-25 uM and incubated for additional 2-4 hours at 37° C. in a humidified incubator. The ROS fluorescence was detected using a Tecan microplate reader (Excitation/Emission=490/525). Relative ROS production was calculated with normalization based on the vehicle control treatment which was set to 100%. Where indicated, percent protection was calculated as a comparison to menadione alone treatment, using the measured relative fluorescent units in the following equation: […]
ROS levels were evaluated together with cell viability because it is possible to get a false negative for ROS if treatment is so toxic, that at the time of assay, cells are dead (and there are no longer any detectable ROS). Decrease in ROS levels is meaningful if cells are still viable.

Human Keratinocytes [3] = assay: Cell Viability Assay (CCK-8, menadione); details: for Cell viability (% of vehicle of control): Table 2H
Procedure: Human Keratinocytes (Promocell, Heidelberg, Germany) were maintained in EpiLife® keratinocyte medium containing 60 uM calcium chloride and 1% Human Keratinocyte Growth Supplement (HKGS). The medium was refreshed every other day. Subsequently, cells were trypsinized at 90% confluency and seeded at a density of 2×10^4 per well into 96-well transparent tissue culture plates. On the second day after seeding, cell medium was replaced with treatments as described above in ROS assay section. After 18 hours, […] (CCK-8) reagent (Dojindo, Kumamoto, Japan) was diluted 1:10 in HBSS and incubated with cells for 4 h at 37° C. in a humidified incubator. Optical absorption at 450 nm was measured using a Tecan Safire2 plate reader. Relative viability was calculated with normalization based on the vehicle control treatment, which was set to 100%.
Where indicated, percent protection was calculated as a comparison to menadione alone treatment, using the measured relative absorbance units in the following equation: […]

[4] = Table 1A, HR 20 uM where present, + menadione 25 uM
[5] = Table 2G, PER 10 uM + menadione
[6] = Table 2G, PER 20 uM + menadione
[7] = Table 2G, PER 50 uM + menadione
[8] = Table 2F, PER 20 uM where present, + menadione

## CCc1ccc(O)cc1O [ER, 4-ethylresorcinol]
[1]; resorcinol (HR or ER) 5 uM
  inhibition at 5 µM: 67%
[1]; resorcinol (HR or ER) 10 uM
  inhibition at 10 µM: 68%
Aged Human Keratinocytes; Table 2C, ER 40 uM + menadione
  % Protection (improvement vs. vehicle control + menadione): 0%
  Glutathione Synthesis, Mean (uM glutathione): 0.36 µM
Aged Human Keratinocytes; Table 2C, ER 50 uM + menadione
  % Protection (improvement vs. vehicle control + menadione): −4%
  Glutathione Synthesis, Mean (uM glutathione): 0.25 µM
Aged Human Keratinocytes; Table 2C, ER 60 uM + menadione
  % Protection (improvement vs. vehicle control + menadione): −1%
  Glutathione Synthesis, Mean (uM glutathione): 0.34 µM
Aged Human Keratinocytes
  synergistic increase in GSH synthesis, combination with GAP amino acids vs either alone: synergistic increase
Human Keratinocytes [2]; Table 2H, ER 10 uM + menadione
  Mean ROS production (% of vehicle control): 287.5%
Human Keratinocytes [2]; Table 2H, ER 20 uM + menadione
  Mean ROS production (% of vehicle control): 308.3%
Human Keratinocytes [2]; + menadione
  synergistic decrease in ROS production, combination with GAP amino acids vs either alone: not observed
Human Keratinocytes [3]; ER 10 uM + menadione
  Cell viability (% of vehicle of control): 36.6%
Human Keratinocytes [3]; ER 20 uM + menadione
  Cell viability (% of vehicle of control): 39.8%

## CCCCCCc1ccc(O)cc1O [HR, 4-hexylresorcinol]
[1]; resorcinol (HR or ER) 5 uM
  Tyrosinase activity inhibition, Mean of % Inhibition: 63^1%
[1]; resorcinol (HR or ER) 10 uM
  Tyrosinase activity inhibition, Mean of % Inhibition: 71^1%
Aged Human Keratinocytes; [4]
  % Protection (improvement vs. vehicle control + menadione): 22^1%
  Glutathione Synthesis, Mean (uM glutathione): 0.46^1 uM
Aged Human Keratinocytes; Table 2A, HR 10 uM + menadione
  % Protection (improvement vs. vehicle control + menadione): 4%
  Glutathione Synthesis, Mean (uM glutathione): 0.24 µM
Aged Human Keratinocytes; Table 2A, HR 20 uM + menadione
  % Protection (improvement vs. vehicle control + menadione): 5%
  Glutathione Synthesis, Mean (uM glutathione): 0.28 µM
Aged Human Keratinocytes; Table 2A, HR 40 uM + menadione
  % Protection (improvement vs. vehicle control + menadione): 1%
  Glutathione Synthesis, Mean (uM glutathione): 0.19 µM
Aged Human Keratinocytes; Table 2A, HR 60 uM + menadione
  % Protection (improvement vs. vehicle control + menadione): 0%
  Glutathione Synthesis, Mean (uM glutathione): 0.14 µM
Aged Human Keratinocytes
  synergistic increase in GSH synthesis, combination with GAP amino acids vs either alone: synergistic increase
Human Keratinocytes [2]; Table 2D, HR 10 uM + menadione
  % protection (improvement vs vehicle control + menadione), ROS: 69.6^3%
  Mean ROS production (% of vehicle control): 153.4^3%
Human Keratinocytes [2]; Table 2D, HR 20 uM + menadione
  % protection (improvement vs vehicle control + menadione), ROS: 76.49^3%
  Mean ROS production (% of vehicle control): 118.7^3%
Human Keratinocytes [2]; + menadione
  synergistic decrease in ROS production, combination with GAP amino acids vs either alone: synergistic decrease
Human Keratinocytes [3]; Table 2D, HR 10 uM + menadione
  % Protection (improvement vs vehicle control + menadione), cell viability: 18.85^3%
  Cell viability (% of control): 65.1^3%
Human Keratinocytes [3]; Table 2D, HR 20 uM + menadione
  % Protection (improvement vs vehicle control + menadione), cell viability: −79.00%
  Cell viability (% of control): 11.0%

## CC(c1ccccc1)c1ccc(O)cc1O (stereo not drawn) [PER, 4-(1-phenylethyl)resorcinol]
Aged Human Keratinocytes; [5]
  % Protection (improvement vs vehicle control + menadione): −2%
  Glutathione Synthesis, Mean (uM glutathione): 0.12 µM
Aged Human Keratinocytes; [6]
  % Protection (improvement vs vehicle control + menadione): 3%
  Glutathione Synthesis, Mean (uM glutathione): 0.25 µM
Aged Human Keratinocytes; [7]
  % Protection (improvement vs vehicle control + menadione): 12%
  Glutathione Synthesis, Mean (uM glutathione): 0.50 µM
Aged Human Keratinocytes
  synergistic increase in GSH synthesis, combination with GAP amino acids vs either alone: not observed
Human Keratinocytes [2]; [8]
  % protection (improvement vs vehicle control + menadione), ROS: −6.74%
  Mean ROS production (% of vehicle control): 321.5%
Human Keratinocytes [2]; + menadione
  synergistic decrease in ROS production, combination with GAP amino acids vs either alone: synergistic decrease
Human Keratinocytes [3]; [8]
  % Protection (improvement vs vehicle control + menadione), cell viability: 1.09%
  Cell viability (% of control): 62.3%
